Data from a melting point compilation (Tetko et al.; mined from patent text by program, amines drawn as free bases though some values may be those of a salt).

First: CCc1cc(Cc2cc(C)c(N)c(CC)c2)cc(C)c1N
Second: CCOC(=O)C(=O)c1ccc(OCCCCC(=O)c2cc(C(C)(C)C)c(O)c(C(C)(C)C)c2)cc1
The melting point of the first is lower: 85 to 86 °C for the first, 95 to 96 °C for the second.

First: COC(=O)CCc1cc2nc(Cl)ccc2n1S(=O)(=O)c1cc(OC)ccc1OC
Second: COc1ccc(CONCc2ccc(OC)cc2OC)cc1
The melting point of the first is higher: 127 °C for the first, 52 to 55 °C for the second.

First: NS(=O)(=O)c1ccc(-c2cc(-c3nc(-c4ccc(C(F)(F)F)nc4)cc(C(F)(F)F)n3)ccn2)s1
Second: O=C(Nc1ncc(C(F)(F)F)o1)C1c2ccccc2Oc2ccc(F)cc21 (racemic)
The melting point of the first is higher: 262 °C for the first, 217 °C for the second.

Compared with `N=C(N)c1ccc2cc(OC(=O)CCCCCN)ccc2c1`, `CCCCCCCCCCCc1cc2ccc(C(=O)O)cc2n1C` is higher in melting point: 122 to 123 °C for the first, 165 to 168 °C for the second.

First: CCCCCCCC/C=C\CCCCCCCC1=C(O)C(=O)C=C(OC)C1=O
Second: CCCCCCCCCCCCSc1n[nH]c(-c2ccc(C(C)(C)C)cc2)n1
The melting point of the first is lower: 69.5 to 70.5 °C for the first, 87 to 92 °C for the second.

First: NC(=O)COc1cc(C(F)(F)F)cc(C(F)(F)F)c1
Second: Cn1nc(C(F)(F)F)cc1Oc1cccc(C(=O)NCC(F)(F)F)n1
The melting point of the first is higher: 139 to 141 °C for the first, 136 °C for the second.

Compared with `Nc1cc(C(=O)Nc2ccncc2)ccc1OCC1CCCCC1`, `O=C(Nc1cn(C2CCCCO2)nc1C(=O)NCCNc1ccccn1)c1ccccn1` (centres undefined) is lower in melting point: 193 to 194 °C for the first, 178 to 180 °C for the second.

Compared with `C=C(C1=C(CCC(=O)OC)C(=O)CC1O)c1ccccc1` (centres undefined), `CCOC(=O)C(C)=CNc1ccc2ccccc2n1` is higher in melting point: 80 °C for the first, 164 to 165 °C for the second.

First: Cn1cc(C(=O)O)c(=O)c2cc3cc(F)c(N4CCN(O)CC4)cc3nc21
Second: Cc1nc2c(-c3cccc(N4CCN(C5CCN(C)CC5)CC4)c3)cnn2c(N)c1-c1cccc(Cl)c1
The melting point of the first is higher: 290 °C for the first, 180 to 185 °C for the second.

Compared with `COC(=O)c1ccc2c(c1)Sc1cc3c(cc1CC2)CCC3`, `COC(=O)c1ccc(NC(=O)c2sc3ccc(OC)cc3c2SC(C)C)cc1` is higher in melting point: 110 to 111 °C for the first, 158 °C for the second.

First: O=C(c1cccnc1)c1cc(-c2cccnc2)c(N2CCOCC2)s1
Second: CCCCNC(=S)Nc1cccc(-c2ccnc3c(C(=O)c4cccs4)cnn23)c1
The melting point of the first is lower: 145 °C for the first, 155 to 157 °C for the second.

`COc1ccc(NC(=O)N(C)C)cc1` and `CCOC(=O)C1(S(=O)(=O)c2ccc(OC)cc2)CCN(Cc2ccc(-c3cccs3)cc2)CC1` cannot be ordered by melting point: 126 to 130 °C for the first, 130 °C for the second.

Going from `CC1(C)NC(=O)C2CNCCN21` (centres undefined) to `CCCCOc1ccc(S(=O)(=O)C2(C(=O)NO)CCN(Cc3ccc(F)cc3)CC2)cc1`, the melting point falls from 174 °C to 112 °C.

First: O=C(c1ccc(Cl)cc1)C(Cn1cncn1)c1ccc(Cl)cc1 (centres undefined)
Second: CCOC(=O)c1cc(-c2ccc(N)cc2)n(-c2ccc(F)cc2)n1
The melting point of the first is lower: 126 to 128 °C for the first, 158 to 160 °C for the second.

Compared with `OC1CCOc2ccc(C=Cc3nc4cc(F)ccc4s3)cc21` (centres undefined), `Fc1cc(-c2nc3ccccc3o2)ccc1CBr` is lower in melting point: 184 to 186 °C for the first, 150 to 152 °C for the second.

First: CCCCN1CCC(NC(=O)c2cnc3c(OC)cccc3c2Nc2ccc(C(=O)NC3CCN(Cc4ccccc4)CC3)cc2)CC1
Second: CC(C)CCOc1ccc(-c2c(Cl)c(CCl)nc3sc4c(c23)CCN(Cc2ccccc2)C4)cc1
The melting point of the first is higher: 215 to 220 °C for the first, 149 to 150 °C for the second.

Compared with `CC(C)(C)Nc1nc(Cl)cc(N2CCCC2)n1`, `COc1ncccc1Nc1c(NC(NC(=O)c2cccc(C)c2)C(C)(C)C)c(=O)c1=O` (centres undefined) is higher in melting point: 153 to 157 °C for the first, 224 to 226 °C for the second.

First: Cc1nc2ccc3c(c2o1)C(O)(CC#N)C(C(C)C)C3 (centres undefined)
Second: CCOc1c(CS(=O)(=O)C2=NOC(C)(CCl)C2)c(C(F)(F)F)nn1CC (centres undefined)
The melting point of the first is higher: 149 to 152 °C for the first, 67 to 69 °C for the second.

Compared with `O=[N+]([O-])c1ccc2c(c1)OC(CO)O2` (centres undefined), `Cc1c(NC(=O)CC(C)(C)C)c(C)c2c(c1-c1cncnc1)OCC2c1ccc(C(C)C)cc1` (centres undefined) is higher in melting point: 80 to 82 °C for the first, 167 to 169 °C for the second.

For `COC1CC2(C)C(CCC3C4CC(C)C(C(C)=O)C4(C)CC(=O)C32)CC1O` (centres undefined), the melting point was 180 to 182 °C.
